{"source": "patent US10357516B2", "about": "(priority 2008, dated 2019)", "key": {"Staphylococcus aureus": {"tested_on": "Staphylococcus aureus", "test": "Pathogen inactivation in RBC units (log reduction)", "assay_type": "cell-based"}, "Serratia marcescens": {"tested_on": "Serratia marcescens", "test": "Pathogen inactivation in RBC units (log reduction)", "assay_type": "cell-based"}, "Yersinia enterocolitica": {"tested_on": "Yersinia enterocolitica", "assay_type": "cell-based"}, "Escherichia coli": {"tested_on": "Escherichia coli", "test": "Pathogen inactivation in RBC units (log reduction)", "assay_type": "cell-based"}, "P. aeruginosa": {"tested_on": "P. aeruginosa", "test": "Pathogen inactivation in RBC units (log reduction), high level input", "assay_type": "cell-based, Pseudomonas aeruginosa", "protocol": "Bacteria: Frozen working stocks of bacteria were inoculated into a 500 mL flask containing a mixture of 50% yeast extract media without added glucose and 50% fetal bovine serum. The flasks were incubated overnight in a shaking waterbath set at 37° C. Gram positive bacteria were spiked into the blood product directly from the overnight culture. The overnight cultures of Gram negative bacteria were further subcultured by a 1:1000 dilution into fresh culture medium and incubated as above until they reach log phase as determined by optical density. This log phase growth was spiked into the blood product for PI experiments.\nThe PI process involves inoculation of RBC units with a culture of the organism to be tested. The typical target input titer of organisms in the RBC units was approximately 10^6 cfu or pfu/mL of RBC. In most cases the organism volume (including any culture medium) was approximately 1% of the RBC unit volume and was not typically greater than 10%. To evaluate inactivation of lower, more physiologically relevant, levels of bacteria, inputs from 10 to 10^5 cfu/unit were used.\nThe dosing solutions were prepared and added to the units as follows: A 600 mM Glutathione (GSH) solution with 1 equivalent of NaOH was prepared by dissolving 2.8 g of GSH in ˜12 mL of 0.9% saline and 0.9 mL of 10 N NaOH. The appropriate volume of GSH solution was drawn into a 20 mL capacity syringe. The volume used was typically 10 mL of GSH solution per 280 mL of RBC, plus 2 mL line loss to generate 20 mM GSH in the dosed RBC unit. The syringe containing GSH was attached to the mixing container using the filtered lead that shares a Y fitting with the lead connected to the incubation container. The unit was placed on a rocker to facilitate top to bottom mixing during addition of dosing solutions. The GSH was added to the unit while the unit is mixing on the rocker. […]\nLog reduction for each unit was determined by taking the log of the ratio of pre-treatment titer to post-treatment titer, where titers were expressed as 10×cfu or pfu/mL. […]"}, "[1]": {"tested_on": "Vesicular stomatitis virus (VSV)", "assay_type": "cell-based"}, "Pseudomonas aerugenosa": {"tested_on": "Pseudomonas aerugenosa", "test": "Low level input full unit inactivation in RBC units", "assay_type": "cell-based, Pseudomonas aeruginosa"}, "[2]": {"conditions": "diluted SAG-M RBC units, 20 mM GSH sodium salt, 0.2 mM S-303, 3 hour incubation, n = 4"}, "[3]": {"conditions": "high level input, 130 μM S-303, 13 mM GSH (1 b.e.), diluted with diluent solution, 3 h RT, N = 2"}, "[4]": {"conditions": "high level input, 200 μM S-303, 20 mM GSH (1 b.e.), 3 h RT, N = 2"}, "[5]": {"conditions": "high level input, 200 μM S-303, 20 mM GSH (1 b.e.), without leukofiltration, 3 h RT, N = 2"}, "[6]": {"conditions": "low level input, 200 μM S-303, 20 mM GSH (1 b.e.), RT 20 hours then 37° C. ~20 hours"}}, "note": "Marks after values point to notes of the source that are not given here.", "data": [{"smiles": "O=C(CCNc1c2ccccc2nc2ccccc12)OCCN(CCCl)CCCl", "note": "[S-303, β-alanine, N-(acridin-9-yl), 2-[bis(2-chloroethyl)amino]ethyl ester]", "values": [{"measurement": "Log Reduction GSH (20 mM), 1 b.e.", "setting": "Staphylococcus aureus", "value": "6.0 ± 0.3", "unit": "log"}, {"measurement": "Log Reduction GSH (20 mM), 2 b.e.", "setting": "Staphylococcus aureus", "value": 6.4, "unit": "log"}, {"measurement": "Average Log Kill", "setting": "Staphylococcus aureus; [2]", "value": 4.15, "unit": "log"}, {"measurement": "Mean Log10 Reduction, 40% Hematocrit", "setting": "Staphylococcus aureus; [3]", "value": ">7", "unit": "log10"}, {"measurement": "Mean Log10 Reduction, 60% Hematocrit", "setting": "Staphylococcus aureus; [4]", "value": 6.7, "unit": "log10"}, {"measurement": "Mean Log10 Reduction, 80% Hematocrit", "setting": "Staphylococcus aureus; [5]", "value": "≥5.8^b log10"}, {"measurement": "Log Reduction GSH (20 mM), 1 b.e.", "setting": "Serratia marcescens", "value": "3.7 ± 0.4", "unit": "log"}, {"measurement": "Log Reduction GSH (20 mM), 2 b.e.", "setting": "Serratia marcescens", "value": 4.8, "unit": "log"}, {"measurement": "Average Log Kill", "setting": "Serratia marcescens; [2]", "value": 4.20, "unit": "log"}, {"measurement": "Mean Log10 Reduction, 40% Hematocrit", "setting": "Serratia marcescens; [3]", "value": 3.1, "unit": "log10"}, {"measurement": "Mean Log10 Reduction, 60% Hematocrit", "setting": "Serratia marcescens; [4]", "value": 4.5, "unit": "log10"}, {"measurement": "Mean Log10 Reduction, 80% Hematocrit", "setting": "Serratia marcescens; [5]", "value": "4.4^b log10"}, {"measurement": "Log Reduction GSH (20 mM), 1 b.e.", "setting": "Yersinia enterocolitica; Y. enterocolitica, 0.2 mM S-303, 20 mM GSH with 1 equivalent NaOH, AS-3 RBC ~60% hematocrit, 3 h at 20 to 25° C.", "value": "5.0 ± 0.4", "unit": "log"}, {"measurement": "Log Reduction GSH (20 mM), 2 b.e.", "setting": "Yersinia enterocolitica; Y. enterocolitica, previous conditions, GSH neutralized with 2 equivalents NaOH", "value": 4.6, "unit": "log"}, {"measurement": "Average Log Kill", "setting": "Yersinia enterocolitica; [2]", "value": "≥6.57", "unit": "log"}, {"measurement": "Mean Log10 Reduction, 40% Hematocrit", "setting": "Yersinia enterocolitica; [3]", "value": 6.1, "unit": "log10"}, {"measurement": "Mean Log10 Reduction, 60% Hematocrit", "setting": "Yersinia enterocolitica; [4]", "value": 4.9, "unit": "log10"}, {"measurement": "Mean Log10 Reduction, 80% Hematocrit", "setting": "Yersinia enterocolitica; [5]", "value": "3.4^b log10"}, {"measurement": "Log Reduction GSH (20 mM), 1 b.e.", "setting": "Escherichia coli", "value": "5.9 ± 0.8", "unit": "log"}, {"measurement": "Log Reduction GSH (20 mM), 2 b.e.", "setting": "Escherichia coli", "value": 6.5, "unit": "log"}, {"measurement": "Average Log Kill", "setting": "Escherichia coli; [2]", "value": "≥6.69", "unit": "log"}, {"measurement": "Mean Log10 Reduction, 40% Hematocrit", "setting": "Escherichia coli; [3]", "value": 6.6, "unit": "log10"}, {"measurement": "Mean Log10 Reduction, 60% Hematocrit", "setting": "Escherichia coli; high level input, 200 μM S-303, 20 mM GSH (1 b.e.), 3 h RT, n = 3", "value": "6.1^c log10"}, {"measurement": "Mean Log10 Reduction, 80% Hematocrit", "setting": "Escherichia coli; [5]", "value": "3.8^b log10"}, {"measurement": "Log Reduction GSH (20 mM), 1 b.e.", "setting": "P. aeruginosa; P. aeruginosa, 0.2 mM S-303, 20 mM GSH with 1 equivalent NaOH, AS-3 RBC ~60% hematocrit, 3 h at 20 to 25° C.", "value": "1.2 ± 0.4", "unit": "log"}, {"measurement": "Log Reduction GSH (20 mM), 2 b.e.", "setting": "P. aeruginosa; P. aeruginosa, previous conditions, GSH neutralized with 2 equivalents NaOH", "value": 1.8, "unit": "log"}, {"measurement": "Average Log Kill", "setting": "P. aeruginosa; [2]", "value": 3.35, "unit": "log"}, {"measurement": "Log Reduction GSH (20 mM), 1 b.e.", "setting": "[1]", "value": ">5.9", "unit": "log"}, {"measurement": "Log Reduction GSH (20 mM), 2 b.e.", "setting": "[1]", "value": 4.2, "unit": "log"}, {"measurement": "Mean Log10 Reduction, 40% Hematocrit", "setting": "[1]; N = 2", "value": 5.9, "unit": "log10"}, {"measurement": "Mean Log10 Reduction, 60% Hematocrit", "setting": "[1]; N = 2", "value": ">5.9", "unit": "log10"}, {"measurement": "Mean Log10 Reduction, 80% Hematocrit", "setting": "[1]; N = 2", "value": ">6.2^b log10"}, {"measurement": "Pathogen inactivation of Pseudomonas aeruginosa", "setting": "Pseudomonas aerugenosa", "value": "complete inactivation"}, {"measurement": "Full Unit Inactivation, 40% Hematocrit", "setting": "Pseudomonas aerugenosa; low level input, 130 μM S-303, 13 mM GSH (1 b.e.), RT 20 hours then 37° C. ~20 hours", "value": "≥2.5", "unit": "log10"}, {"measurement": "Full Unit Inactivation, 60% Hematocrit", "setting": "Pseudomonas aerugenosa; [6]", "value": "≥2.5", "unit": "log10"}, {"measurement": "Full Unit Inactivation, 80% Hematocrit", "setting": "Pseudomonas aerugenosa; [6]", "value": "≥2.7", "unit": "log10"}]}]}
